Assay results taken from patent publication US20240027453A1, “METHOD FOR DETECTION AND QUANTITATIVE MONITORING OF INFECTIONS WITH HERPESVIRUSES” (The Trustees of Princeton University, priority 2020, published 2024).
Read-outs that look alike come from different tables or passages of the source.

Tested on: HCMV
Type: cell-based
Description: In example herpesvirus PRM assay methods shown herein, cell pellets were lysed in 2% SDS, 100 mM NaCl, 0.5 mM EDTA, 50 mM Tris, pH 8.2, and 50 μg of protein was reduced and alkylated with 25 mM TCEP and 50 mM CAM respectively for 20 min at 70° C. Proteins were then precipitated via methanol chloroform precipitation (Wessel & Flugg, Anal Biochem. 138(1):141-143, 1984), resuspended in 50 mM HEPES, pH 8.2 and digested overnight with trypsin (50:1 protein:enzyme w/w ratio). Digested peptides were desalted by SDB-RPS StageTip as previously described (Lum et al., Cell Syst., 7(6):[…], 2018; Greco et al., Methods Mol Biol 1410:39-63, 2016; Federspiel & Cristea, Methods Mol Biol., 1977:115-143, 2019).
Peptides (1.0 μg on column) were analyzed by LC-MS/MS using a Dionex Ultimate 3000 UHPLC coupled online to an EASYSpray ion source and a Q Exactive HF. Peptides were separated on an EASYSpray C18 column (75 μm×25 cm) heated to 50° C. using a linear gradient of 5% B to 32% B over 60 min at a flow rate of 250 nL/min and were ionized at 1.7 kv. Mobile phase A consisted of 0.1% FA in H2O and mobile phase B consisted of 0.1% FA, 2.9% H2O in ACN.
The PRM method was controlled by a peptide inclusion list with retention time windows of 6 min for selected precursor ions.
The PRM assay was developed and analyzed using the open-source software Skyline (Maclean et al., Bioinformatics 26(7):966-968, 2010). Summed area under the curve of 3-4 transitions per peptide was used for quantitation. Targeted peptides were normalized to host protein loading control peptides. Peptide values for each sample were scaled to the average of each peptide across all runs. The average of multiple peptides was used as the inferred value for the protein measurement when more than one peptide was quantified (Federspiel et al., PLoS Biol. 17(9):e3000437. Doi: 10.1371/journal.pbio.3000437). PRM quantitation data were graphed using the Python Seaborn and Matplotlib libraries.
MRC5 primary human fibroblasts (HFs) (ATCC CCL-171) were used as the model system for HSV-1 and HCMV infections and were cultured in complete growth medium (DMEM supplemented with 10% fetal bovine serum and 1% penicillin-streptomycin antibiotics) at 37° C. and 5% CO2. iSLK.219 cells harboring latent KSHV (a gift from Dr. Britt Glaunsinger, University of California, Berkeley) were grown in complete growth medium supplemented with 500 μg/ml hygromycin (ThermoFisher Scientific, 10687010) at 37° C. and 5% CO2. All cells were used for experiments within a maximum of 10 passages.
Wild type HSV-1 strain 17+ (a gift from Beate Sodeik, Hannover Medical School, Hannover, Germany) was propagated as previously described (Diner et al., 2015). Briefly, PO stocks were generated by electroporating pBAC-HSV-1 into U-2 OS cells. […] In a similar manner, wild type HCMV strain AD169 was produced from BAC electroporation into HFs and working stocks were propagated by infecting HFs at a low level. In both cases, cell-associated virus was released by sonication, combined with supernatant virus, then concentrated by ultracentrifugation (20,000 rpm, 2 hours, 4° C. with SW28 swinging bucket rotor [Beckman Coulter]) over a 10% ficoll (HSV-1) or 20% sorbitol (HCMV) cushion. Virus stock titers were determined by plaque assay for HSV-1 or tissue culture infectious dose (TCID50) for HCMV and infections were performed at a multiplicity of infection (MOI) of 3.
12 hours prior to virus infection or reactivation, cells were treated with either the small molecule drug or DMSO/PBS control at an equivalent volume. […] For infection cycles lasting longer than 24 hours, small molecule drugs were re-added to the cell culture medium every 24 hours. Upon collection, cells were rinsed with PBS, scraped into a microcentrifuge tube, pelleted by centrifugation, and rinsed again with PBS.

Nc1c(S(=O)(=O)c2ccccc2)c2nc3ccccc3nc2n1-c1ccc(F)cc1 [CAY10602]
HCMV UL122 (IE2) and UL123 (IE1) levels: decreases | levels of HCMV viral immediate early proteins: reduced | HCMV UL123 levels (24 HPI, […] CAY10602, 50 μM trans-Resveratrol): unchanged | HCMV UL26 levels (48 HPI, […] CAY10602, 50 μM trans-Resveratrol): decreased | HCMV viral protein production (by 48 HPI): global reduction | HCMV UL99 levels (by 72 HPI, […] CAY10602, 50 μM trans-Resveratrol): robustly decreased | global decrease in HCMV viral protein levels (by 120 HPI, […] CAY10602, 50 μM trans-Resveratrol): ~70% | CVC2 (P16726) protein level (timepoint 24, DE): 0.01787 | DBP (P17147) protein level (timepoint 24, DE): 0.1756 | HELI (P16736) protein level (timepoint 24, DE): 0.3389 | IR01 (P09710) protein level (timepoint 24, DE): 0.274 | NEC2 (P16791) protein level (timepoint 24, DE): 0.03969 | RIR1 (P16782) protein level (timepoint 24, DE): 0.09397 | TRM1 (P16724) protein level (timepoint 24, DE): 0.04087 | UL4 (P17146) protein level (timepoint 24, DE): 0.03736 | UL26 (P16762) protein level (timepoint 24, DE): 0.07273 | UL32 (P08318) protein level (timepoint 24, DE): 0.01952 | UL34 (P16812) protein level (timepoint 24, DE): 0.1137 | UL38 (P16779) protein level (timepoint 24, DE): 0.9755 | UL44 (P16790) protein level (timepoint 24, DE): 0.06474 | UL48 (P16785) protein level (timepoint 24, DE): 0.01175 | UL54 (P08546) protein level (timepoint 24, DE): 0.6089 | UL71 (P16823) protein level (timepoint 24, DE): 0.439 | UL78 (P16751) protein level (timepoint 24, DE): 0.9755 | UL84 (P16727) protein level (timepoint 24, DE): 0.1012 | UL95 (P16801) protein level (timepoint 24, DE): 0.07625 | UL96 (P16787) protein level (timepoint 24, DE): 0.387 | UL97 (P16788) protein level (timepoint 24, DE): 0.2812 | UL98 (P16789) protein level (timepoint 24, DE): 0.3005 | UL102 (P16827) protein level (timepoint 24, DE): 0.5343 | UL104 (P16735) protein level (timepoint 24, DE): 0.03903 | UL112/UL113 (P17151) protein level (timepoint 24, DE): 0.5236 | UL114 (P16769) protein level (timepoint 24, DE): 0.6704 | UL119/UL118 (P16739) protein level (timepoint 24, DE): 0.2198 | UL128 (P16837) protein level (timepoint 24, DE): 0.1113 | US8 (P09730) protein level (timepoint 24, DE): 1.057 | US9 (P09729) protein level (timepoint 24, DE): 0.627 | US12 (P09721) protein level (timepoint 24, DE): 1.672 | US13 (P09720) protein level (timepoint 24, DE): 0.6838 | US14 (P09719) protein level (timepoint 24, DE): 0.3957 | US18 (P69334) protein level (timepoint 24, DE): 0.5335 | US22 (P09722) protein level (timepoint 24, DE): 0.3966 | US23 (P09701) protein level (timepoint 24, DE): 0.6776 | US24 (P09700) protein level (timepoint 24, DE): 0.62 | US34 (P09709) protein level (timepoint 24, DE): 0.7981 | gB (P06473) protein level (timepoint 24, DE): 0.1137 | IRS1 (P09715) protein level (timepoint 24, IE): 0.3939 | TRS1 (P09695) protein level (timepoint 24, IE): 0.2642 | UL13 (P16755) protein level (timepoint 24, IE): 2.055 | UL36 (P16767) protein level (timepoint 24, IE): 1.41 | UL37 (P16778) protein level (timepoint 24, IE): 1.032 | UL122 (P19893) protein level (timepoint 24, IE): 0.05997 | UL123 (P13202) protein level (timepoint 24, IE): 0.9831 | CVC1 (P16799) protein level (timepoint 24, L): 0.06119 | IR11 (P16809) protein level (timepoint 24, L): 0.1044 | MCP (P16729) protein level (timepoint 24, L): 0.004968 | SCP (Q7M6N6) protein level (timepoint 24, L): 0.004248 | TRM2 (P16792) protein level (timepoint 24, L): 0.01981 | UL22A (P16845) protein level (timepoint 24, L): 0.04382 | UL25 (P16761) protein level (timepoint 24, L): 0.03889 | UL29 (P16764) protein level (timepoint 24, L): 0.8336 | UL31 (P16848) protein level (timepoint 24, L): 0.3279 | UL43 (P16781) protein level (timepoint 24, L): 0.06088 | UL52 (P16793) protein level (timepoint 24, L): 0.01567 | UL80 (P16753) protein level (timepoint 24, L): 0.0363 | UL82 (P06726) protein level (timepoint 24, L): 0.1843 | UL88 (P16731) protein level (timepoint 24, L): 0.03831 | UL94 (P16800) protein level (timepoint 24, L): 0.08626 | UL99 (P13200) protein level (timepoint 24, L): 0.0296 | UL103 (P16734) protein level (timepoint 24, L): 0.3578 | UL117 (P16770) protein level (timepoint 24, L): 0.4362 | gH (P12824) protein level (timepoint 24, L): 0.04925 | gL (P16832) protein level (timepoint 24, L): 0.03727 | gM (P16733) protein level (timepoint 24, L): 0.03485 | gN (P16795) protein level (timepoint 24, L): 0.1564 | IR12 (P16810) protein level (timepoint 24, LL): 0.06811 | TRX1 (P16783) protein level (timepoint 24, LL): 0.0077 | TRX2 (P16728) protein level (timepoint 24, LL): 0.005245 | UL24 (P16760) protein level (timepoint 24, LL): 0.1137 | UL40 (P16780) protein level (timepoint 24, LL): 0.6403 | UL47 (P16784) protein level (timepoint 24, LL): 0.008892 | UL69 (P16749) protein level (timepoint 24, LL): 0.2203 | UL70 (P17149) protein level (timepoint 24, LL): 0.1882 | UL83 (P06725) protein level (timepoint 24, LL): 0.04505 | UL132 (P69338) protein level (timepoint 24, LL): 0.1044 | US15 (P09718) protein level (timepoint 24, LL): 1.318 | CVC2 (P16726) protein level (timepoint 48, DE): 0.02711 | DBP (P17147) protein level (timepoint 48, DE): 0.3215 | HELI (P16736) protein level (timepoint 48, DE): 0.633 | IR01 (P09710) protein level (timepoint 48, DE): 0.3157 | NEC2 (P16791) protein level (timepoint 48, DE): 0.07071 | RIR1 (P16782) protein level (timepoint 48, DE): 0.1157 | TRM1 (P16724) protein level (timepoint 48, DE): 0.1031 | UL4 (P17146) protein level (timepoint 48, DE): 0.07128 | UL26 (P16762) protein level (timepoint 48, DE): 0.08021 | UL32 (P08318) protein level (timepoint 48, DE): 0.02022 | UL34 (P16812) protein level (timepoint 48, DE): 0.07906 | UL35 (P16766) protein level (timepoint 48, DE): 0.007792 | UL38 (P16779) protein level (timepoint 48, DE): 0.8139 | UL44 (P16790) protein level (timepoint 48, DE): 0.08914 | UL48 (P16785) protein level (timepoint 48, DE): 0.03443 | UL54 (P08546) protein level (timepoint 48, DE): 0.7178 | UL71 (P16823) protein level (timepoint 48, DE): 0.3459 | UL78 (P16751) protein level (timepoint 48, DE): 0.7134 | UL84 (P16727) protein level (timepoint 48, DE): 0.07575 | UL95 (P16801) protein level (timepoint 48, DE): 0.1437 | UL96 (P16787) protein level (timepoint 48, DE): 0.2583 | UL97 (P16788) protein level (timepoint 48, DE): 0.1726 | UL98 (P16789) protein level (timepoint 48, DE): 0.3796
